Two molecules from patent US9345705B2, “Compositions and methods for treating cancer” (Merck Sharp & Dohme Corp., priority 2011, dated 2016) can be followed below.

The test system of experiment [1] is LoVo xenograft tumors. Description: Pharmacodynamic DNA damage analysis (Western blot pCHK1 S345, IHC γH2AX) in xenograft tumors. It is filed as in vivo, CD-1 Nu/Nu female mice. The following applies: 2 days BID, 60 mpk each agent. A general note: In western blotting, separated proteins are transferred to a membrane and probed.
Protocol: CD-1 Nu/Nu female mice aged 5-6 weeks (Charles River Laboratories) were inoculated with 5×10^6 LoVo cells in 100 uL (1:1 Matrigel:PBS) subcutaneously (S.C.) into the right flank. […] Three animals from each group were sacrificed via carbon dioxide inhalation at 2 hours, 24 hours, or 48 hours after the 4th and final dose of the 2 day BID schedule. Tumors were resected, split roughly in half, and stored in 10% formalin for immunohistochemistry (IHC) or at −80° C. for Western blot analysis.
The subject of experiment [2] is A2058 melanoma, HT-29 colorectal and LoVo colorectal cancer cells. The experiment in a line: Growth assay (ATP ViaLight) at concentrations with negligible single-agent effect. It is filed as cell-based, human.
Protocol: A2058 melanoma cancer cells were treated with 125 nM MK-1775, 150 nM MK-8776, or both. HT-29 colorectal cancer cells were treated with 125 nM MK-1775, 300 nM MK-8776, or both. LoVo colorectal cancer cells were treated with 40 nM MK-1775, 75 nM MK-8776, or both. FIG. 2A depicts cell proliferation and was scored at either 48 or 72 hours as the percentage of ATP ViaLight® (ViaLight® Assay, Lonza, Basel, Switzerland) of treated samples relative to DMSO treated controls.
Experiment [3] deals with LoVo xenograft tumors. Description: Anti-tumor efficacy in xenograft model of human colorectal cancer. The conditions noted are these: study day 18, 3 cycles of 2 day BID dosing, 50 mpk, single agent plus vehicle. It is filed as in vivo, CD-1 Nu/Nu female mice. The method, then:
The anti-tumor efficacy of this combination was assessed in a xenograft model of human colorectal cancer. CD-1 Nu/Nu female mice aged 5-6 weeks (Charles River Laboratories) were inoculated with 5×10^6 LoVo cells in 100 uL (1:1 Matrigel:PBS) S.C. into the right flank. […] Tumor volume and body weights were recorded bi-weekly.
A general note: A xenograft is tissue or cells of one species grown in another, often human tumour cells in immunodeficient mice.

The test system of a further experiment is LoVo cells. Description: DNA damage (γH2AX) by flow cytometry in LoVo cells. It is filed as cell-based, human.
For experiment [4], the system named is A2058 melanoma cancer cell line. The experiment in a line: Cell proliferation by ATP vialight, 9-point titrations with fixed concentrations of the complementary drug. It is filed as cell-based, human. The conditions noted are these: for EC50: Homo sapiens, 72 hours. The procedure:
To determine the ability of each drug to potentiate the activity of the other, Applicants performed 9-point titrations of each in the added presence of increasing, but fixed, concentrations of the complimentary drug (FIGS. 1A and 1B). Analysis of cell proliferation was determined after 72 hours (3 days) incubation with either DMSO (as control) or the indicated concentrations of MK-1775 and MK-8776 by ATP vialight (Promega). […] EC50 concentrations were calculated (GraphPad Prism, GraphPad Software, San Diego, Calif.).
Inhibition of WEE1 and CHK1 lead to aberrant CDK1 and/or CDK2 activity, and without wishing to be bound by any theory, this is thought to underlie the potential of either target for having deleterious effects on actively dividing tumor cells. Because of the possible overlap in the MK-1775 and MK-8776 mechanisms of action, Applicants carried out […] synergy experiments.

Read-outs that look alike come from different tables or passages of the source.

Protocol for LoVo cells: A2058 melanoma cancer cells were treated with 125 nM MK-1775, 150 nM MK-8776, or both. HT-29 colorectal cancer cells were treated with 125 nM MK-1775, 300 nM MK-8776, or both. LoVo colorectal cancer cells were treated with 40 nM MK-1775, 75 nM MK-8776, or both. […] FIG. 2B depicts DNA damage and was scored at either 24 or 48 hours as the percentage of cells positive for the DNA damage marker γH2AX (histone H2AX phosphorylated at serine 139) determined by flow cytometry.

Take `C=CCn1c(=O)c2cnc(Nc3ccc(N4CCN(C)CC4)cc3)nc2n1-c1cccc(C(C)(C)O)n1` [MK-1775, 2-allyl-1-[6-(1-hydroxy-1-methylethyl)pyridin-2-yl]-6-{[4-(4-methylpiperazin-1-yl)phenyl]amino}-1,2-dihydro-3H-pyrazolo[3,4-d]pyrimidin-3-one]: in the experiment with LoVo xenograft tumors [1], the “pCHK1 S345 by Western blot at 2 hours after the final dose” value is “transient increase” and the “pCHK1 S345 effect at 24 hours after the final dose” value is on record as “lost”. For the same molecule, the “effect in growth assay, single agent” value in experiment [2] (A2058: 125 nM MK-1775, 150 nM MK-8776, HT-29: 125 nM, 300 nM, LoVo: 40 nM, 75 nM, 48 or 72 hours) is listed as “negligible effect”. Also, the T/C (as a rule, the ratio of treated to control) with LoVo xenograft tumors [3] is given as 42%. In addition, the “cells with detectable γH2AX” value with LoVo cells (LoVo cells, 24 hour treatment, 40 nM MK-1775, 75 nM MK-8776, or both) is given as 6%. The “reduction of MK-1775 EC50” value in experiment [4] (A2058 cells, addition of 150 nM MK-8776) is listed as 5 fold. For the same molecule, in experiment [4] (A2058 cells, MK-1775 alone, read-out: average EC50 of growth inhibition), the EC50 – broadly, the concentration giving half of the maximal effect – came out at 225 nM. Besides, the concentration for a half-maximal effect (EC50) in experiment [4] (A2058 cells, addition of 150 nM MK-8776, read-out: average MK-1775 EC50 with added MK-8776) was determined as 45 nM. In experiment [4] (MK-1775 titrated over 75 nM of the labelled drug), the “shift in the MK-1775 response curve (sham synergy experiment)” value is listed as “did not cause a shift in the response curve”.

Turning to `Cn1cc(-c2cnn3c(N)c(Br)c([C@@H]4CCCNC4)nc23)cn1` [MK-8776, (R)-(−)-6-Bromo-3-(1-methyl-1H-pyrazol-4-yl)-5-piperidin-3-yl-pyrazolo[1,5-a]pyrimidin-7-ylamine], in the experiment with LoVo xenograft tumors [1], the “pCHK1 S345 by Western blot at 2 hours after the final dose” value is given as “transient increase” and the “pCHK1 S345 effect at 24 hours after the final dose” value is reported as “lost”. The “effect in growth assay, single agent” value in experiment [2] is on record as “negligible effect”. Also, the T/C in the experiment with LoVo xenograft tumors [3] is listed as 52%. Besides, the “cells with detectable γH2AX” value in the experiment on LoVo cells was 5%. In addition, in experiment [4], the “effect on A2058 proliferation by itself” value is “do not effect A2058 proliferation”, the “maximum cell growth inhibition at the highest concentration of MK-8776” value is recorded as “dose-dependent increase”, the “shift in the MK-1775 response curve (sham synergy experiment)” value is recorded as “robust potency shift” and the “shift of MK-8776 EC50 curves” value is “leftward shifts in EC50 curves”. Besides, the “shift of the MK-1775 response curve caused by added drug” value in experiment [4] is given as “leftward shift of the MK-1775 response curve”.
